From patent US11453660B2, “Androgen receptor and glucocorticoid receptor modulators” (ONCOSTELLAE, S.L., priority 2017, dated 2022)

target: T1, Human Glucocorticoid Receptor (Homo sapiens, UniProt P04150); test: Competition Binding in IM-9 Human Glucocorticoid Receptor (GR IM-9); details: cytosol from IM-9 cell line, 1.5 nM [3H]-Dexamethasone, 4° C. for 6 hours
T1 construct: endogenous in cells; host or cells: cytosol from IM-9 cell line
T1 sequence (P04150 1-777): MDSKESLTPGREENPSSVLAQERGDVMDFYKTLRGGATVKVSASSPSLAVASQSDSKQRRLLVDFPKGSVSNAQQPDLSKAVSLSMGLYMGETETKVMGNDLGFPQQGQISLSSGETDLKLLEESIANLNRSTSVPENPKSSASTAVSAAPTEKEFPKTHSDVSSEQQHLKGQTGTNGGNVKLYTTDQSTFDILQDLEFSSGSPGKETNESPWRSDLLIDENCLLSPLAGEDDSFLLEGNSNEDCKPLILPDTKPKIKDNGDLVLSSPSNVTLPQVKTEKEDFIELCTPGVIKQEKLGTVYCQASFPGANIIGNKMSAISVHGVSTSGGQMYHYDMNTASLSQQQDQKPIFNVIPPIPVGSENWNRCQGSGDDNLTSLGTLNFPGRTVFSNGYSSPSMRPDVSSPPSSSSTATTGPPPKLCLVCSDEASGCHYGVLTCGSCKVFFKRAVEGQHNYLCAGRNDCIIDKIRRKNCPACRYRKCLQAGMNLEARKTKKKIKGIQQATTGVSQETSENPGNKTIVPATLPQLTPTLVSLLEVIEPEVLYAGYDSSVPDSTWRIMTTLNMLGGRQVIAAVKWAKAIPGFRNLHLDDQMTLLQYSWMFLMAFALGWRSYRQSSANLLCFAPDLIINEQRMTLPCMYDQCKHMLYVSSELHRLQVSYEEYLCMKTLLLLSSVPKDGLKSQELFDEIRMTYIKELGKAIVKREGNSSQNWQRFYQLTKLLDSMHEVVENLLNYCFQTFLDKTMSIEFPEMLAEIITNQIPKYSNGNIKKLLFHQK
Experimental: Competition Binding in IM-9 Human Glucocorticoid Receptor (GR IM-9)
Glucocorticoid receptor competition binding assays were carried out in a polypropilene 96-well plate. In each well was incubated 100 μg of cytosol from IM-9 cell line, 1.5 nM [3H]-Dexamethasone (71 Ci/mmol, 1 mCi/ml, Perkin Elmer NET1192001MC) and compounds studied and standard. Non-specific binding was determined in the presence of Triamcinolone 10 μM (Sigma Aldrich T6376).
The reaction mixture (Vt: 200 μl/well) was incubated at 4° C. for 6 hours, 180 μL was transferred to GF/B 96-well plate (Millipore, Madrid, Spain) pretreated with 0.5% of PEI and treated with binding buffer (TES 10 mM, sodium molybdate 10 mM, EDTA 1 mM, pH 7.4, 2-mercaptoethanol 20 mM, Glycerol 10%) after was filtered and washed six times with 250 μl wash buffer (TES 10 mM, sodium molybdate 10 mM, EDTA 1 mM, pH 7.4, 2-mercaptoethanol 20 mM Glycerol 10%), before measuring in a microplate beta scintillation counter (Microbeta Trilux, PerkinElmer, Madrid, Spain).

| Structure (SMILES) | IC50 [µM] |
| --- | --- |
| CC(=O)C1=C(C)NC(C)=C(C(=O)OCc2ccncc2F)C1c1csc2ncccc12 (stereo not drawn) [Example C68, (3-fluoropyridin-4-yl)methyl 5-acetyl-2,6-dimethyl-4-(thieno[2,3-b]pyridin-3-yl)-1,4-dihydropyridine-3-carboxylate] | ≥ 1 |
| CC(=O)C1=C(C)NC(C2CC2)=C(C(=O)OC(C)C)C1c1csc2c(Br)cccc12 (stereo not drawn) [Example C82, Isopropyl 5-acetyl-4-(7-bromobenzo[b]thiophen-3-yl)-2-cyclopropyl-6-methyl-1,4-dihydropyridine-3-carboxylate] | < 0.1 |
| COC(=O)C1=C(C(F)(F)F)NC(C)=C(C(C)=O)C1c1csc2c(Br)cccc12 (stereo not drawn) [Example C83, Methyl 5-acetyl-4-(7-bromobenzo[b]thiophen-3-yl)-6-methyl-2-(trifluoromethyl)-1,4-dihydropyridine-3-carboxylate] | 0.1 to 1 |
| CC(=O)C1=C(C)NC(C2CC2)=C(C(=O)OCC2CC2)C1c1csc2c(Br)cccc12 (stereo not drawn) [Example C84, Cyclopropylmethyl 5-acetyl-4-(7-bromobenzo[b]thiophen-3-yl)-2-cyclopropyl-6-methyl-1,4-dihydropyridine-3-carboxylate] | < 0.1 |
| COC(=O)C1=C(C2CC2)NC(C)=C(C(C)=O)C1c1csc2c(C(=O)C(F)(F)F)cccc12 (stereo not drawn) [Example C85, Methyl 5-acetyl-2-cyclopropyl-6-methyl-4-(7-(2,2,2-trifluoroacetyl)benzo[b]thiophen-3-yl)-1,4-dihydropyridine-3-carboxylate] | ≥ 1 |
| CC(=O)C1=C(C)NC(C2CC2)=C(C(=O)OC2CCCCC2)C1c1csc2ncccc12 (stereo not drawn) [Example C91, Cyclohexyl 5-acetyl-2-cyclopropyl-6-methyl-4-(thieno[2,3-b]pyridin-3-yl)-1,4-dihydropyridine-3-carboxylate] | < 0.1 |
| CC(=O)C1=C(C)NC(C2CC2)=C(C(=O)C2CC2)C1c1csc2c(Br)cccc12 (stereo not drawn) [Example C93, 1-(4-(7-Bromobenzo[b]thiophen-3-yl)-5-(cyclopropanecarbonyl)-6-cyclopropyl-2-methyl-1,4-dihydropyridin-3-yl)ethan-1-one] | 0.1 to 1 |
| CC(=O)C1=C(C)NC(C2CC2)=C(C(=O)OCc2cccc(Cl)c2)C1c1csc2ncccc12 (stereo not drawn) [Example C94, 3-chlorobenzyl 5-acetyl-2-cyclopropyl-6-methyl-4-(thieno[2,3-b]pyridin-3-yl)-1,4-dihydropyridine-3-carboxylate] | < 0.1 |
| CC(=O)C1=C(C)NC(C2CC2)=C(C(=O)OC(C)(C)c2ccc(F)cc2)C1c1csc2ncccc12 (stereo not drawn) [Example C97, 2-(4-fluorophenyl)propan-2-yl 5-acetyl-2-cyclopropyl-6-methyl-4-(thieno[2,3-b]pyridin-3-yl)-1,4-dihydropyridine-3-carboxylate] | < 0.1 |
| CC(=O)C1=C(C)NC(C2CC2)=C(C(=O)OCC2CC2)C1c1csc2ncccc12 (stereo not drawn) [Example C99, Cyclopropylmethyl 5-acetyl-2-cyclopropyl-6-methyl-4-(thieno[2,3-b]pyridin-3-yl)-1,4-dihydropyridine-3-carboxylate] | 0.1 to 1 |
| CC(=O)C1=C(C)NC(C2CC2)=C(C(=O)OC2CCCC2)C1c1csc2ncccc12 (stereo not drawn) [Example C100, Cyclopentyl 5-acetyl-2-cyclopropyl-6-methyl-4-(thieno[2,3-b]pyridin-3-yl)-1,4-dihydropyridine-3-carboxylate] | < 0.1 |
| COC(=O)C1=C(C2CCC2)NC(C)=C(C(C)=O)C1c1csc2c(Br)cccc12 (stereo not drawn) [Example C102, Methyl 5-acetyl-4-(7-bromobenzo[b]thiophen-3-yl)-2-cyclobutyl-6-methyl-1,4-dihydropyridine-3-carboxylate] | 0.1 to 1 |
| COC(=O)C1=C(C2CC2)NC(C)=C(C#N)C1c1csc2c(C#N)cccc12 (stereo not drawn) [Example C104, Methyl 5-cyano-4-(7-cyanobenzo[b]thiophen-3-yl)-2-cyclopropyl-6-methyl-1,4-dihydropyridine-3-carboxylate] | < 0.1 |
| COC(=O)C1=C(C2CCCCC2)NC(C)=C(C(C)=O)C1c1csc2c(Br)cccc12 (stereo not drawn) [Example C106, Methyl 5-acetyl-4-(7-bromobenzo[b]thiophen-3-yl)-2-cyclohexyl-6-methyl-1,4-dihydropyridine-3-carboxylate] | 0.1 to 1 |
| COC(=O)C1=C(C)NC(C2CC2)=C(C(=O)OCC2CC2)C1c1csc2c(C#N)cccc12 (stereo not drawn) [Example C109, 3-(cyclopropylmethyl) 5-methyl 4-(7-cyanobenzo[b]thiophen-3-yl)-2-cyclopropyl-6-methyl-1,4-dihydropyridine-3,5-dicarboxylate] | < 0.1 |
| COC(=O)C1=C(C2CC2)NC(C2CC2)=C(C(=O)OCC2CC2)C1c1csc2c(C#N)cccc12 (stereo not drawn) [Example C110, 3-(cyclopropylmethyl) 5-methyl 4-(7-cyanobenzo[b]thiophen-3-yl)-2,6-dicyclopropyl-1,4-dihydropyridine-3,5-dicarboxylate] | < 0.1 |

Other lines, results leading:

| IC50 [µM] | Structure (SMILES) |
| --- | --- |
| 0.1 to 1 | CC(=O)C1=C(C)NC(C)=C(C(=O)OCc2ccnc(Cl)c2)C1c1csc2ncccc12 (stereo not drawn) [Example C77, (2-chloropyridin-4-yl)methyl 5-acetyl-2,6-dimethyl-4-(thieno[2,3-b]pyridin-3-yl)-1,4-dihydropyridine-3-carboxylate] |
| < 0.1 | CC(=O)C1=C(C)NC(C2CC2)=C(C(=O)OC2COC2)C1c1csc2c(Br)cccc12 (stereo not drawn) [Example C81, Oxetan-3-yl 5-acetyl-4-(7-bromobenzo[b]thiophen-3-yl)-2-cyclopropyl-6-methyl-1,4-dihydropyridine-3-carboxylate] |
| 0.1 to 1 | CC(=O)C1=C(C)NC(C)=C(C(=O)OC(C)(C)c2ccccc2)C1c1csc2c(Br)cccc12 (stereo not drawn) [Example C86, 2-phenylpropan-2-yl 5-acetyl-4-(7-bromobenzo[b]thiophen-3-yl)-2,6-dimethyl-1,4-dihydropyridine-3-carboxylate] |
| < 0.1 | CC(=O)C1=C(C)NC(C2CC2)=C(C(=O)OC(C)(C)c2ccccc2)C1c1csc2ncccc12 (stereo not drawn) [Example C92, 2-phenylpropan-2-yl 5-acetyl-2-cyclopropyl-6-methyl-4-(thieno[2,3-b]pyridin-3-yl)-1,4-dihydropyridine-3-carboxylate] |
| < 0.1 | CC(=O)C1=C(C)NC(C)=C(C(=O)OC(C)(C)c2ccc(F)cc2)C1c1csc2ncccc12 (stereo not drawn) [Example C95, 2-(4-fluorophenyl)propan-2-yl 5-acetyl-2,6-dimethyl-4-(thieno[2,3-b]pyridin-3-yl)-1,4-dihydropyridine-3-carboxylate] |
| 0.1 to 1 | CC(=O)C1=C(C)NC(C2CC2)=C(C(=O)OC(C)(C)c2ccc(F)cc2)C1c1csc2c(Br)cccc12 (stereo not drawn) [Example C96, 2-(4-fluorophenyl)propan-2-yl 5-acetyl-4-(7-bromobenzo[b]thiophen-3-yl)-2-cyclopropyl-6-methyl-1,4-dihydropyridine-3-carboxylate] |
| 0.1 to 1 | COC(=O)C1=C(C2CC2)NC(C)=C(C(C)=O)C1c1csc2c(F)cccc12 (stereo not drawn) [Example C98, Methyl 5-acetyl-2-cyclopropyl-4-(7-fluorobenzo[b]thiophen-3-yl)-6-methyl-1,4-dihydropyridine-3-carboxylate] |
| < 0.1 | CC(=O)C1=C(C)NC(C2CC2)=C(C(=O)OCC2CC2)C1c1csc2c(C#N)cccc12 (stereo not drawn) [Example C101, Cyclopropylmethyl 5-acetyl-4-(7-cyanobenzo[b]thiophen-3-yl)-2-cyclopropyl-6-methyl-1,4-dihydropyridine-3-carboxylate] |
| < 0.1 | COC(=O)C1=C(C)NC(C2CC2)=C(C(=O)OC)C1c1csc2c(C#N)cccc12 (stereo not drawn) [Example C103, Dimethyl 4-(7-cyanobenzo[b]thiophen-3-yl)-2-cyclopropyl-6-methyl-1,4-dihydropyridine-3,5-dicarboxylate] |
| 0.1 to 1 | COC(=O)C1=C(C2CCCC2)NC(C)=C(C(C)=O)C1c1csc2c(Br)cccc12 (stereo not drawn) [Example C105, Methyl 5-acetyl-4-(7-bromobenzo[b]thiophen-3-yl)-2-cyclopentyl-6-methyl-1,4-dihydropyridine-3-carboxylate] |
| < 0.1 | CC1=C(C#N)C(c2csc3c(C#N)cccc23)C(C(=O)OCC2CC2)=C(C2CC2)N1 (stereo not drawn) [Example C111, Cyclopropylmethyl 5-cyano-4-(7-cyanobenzo[b]thiophen-3-yl)-2-cyclopropyl-6-methyl-1,4-dihydropyridine-3-carboxylate] |
